The results in this text go back to PubChem BioAssay (NCI).

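Values below derive from 48-hour exposures of cells grown in 96-well plates, with endpoints linearly interpolated between the two concentrations bracketing the appropriate inhibition level. GI50: concentration for 50% inhibition of growth. At the TGI there is no net growth.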 Some results are limits rather than exact numbers.

Test in all cases: growth of human tumour cells (NCI), 48 h
The test system of assay [1] is CAKI-1 renal.
Assay [2] has as its system HS 578T breast.
Assay [3] concerns KM12 colon.
The test system of assay [4] is M14 melanoma.
Assay [5] relates to NCI-H460 lung.
Assay [6] concerns OVCAR-3 ovarian.
Assay [7] concerns OVCAR-8 ovarian.
Assay [8] has as its system PC-3 prostate.
In assay [9] the test system is SF-268 CNS.
The subject of assay [10] is SF-295 CNS.

Consider `CC(=O)ON1CCCC(P(=O)(OCCSC(=O)C(C)(C)C)OCCSC(=O)C(C)(C)C)C1=O` (centres undefined), for which the GI50 is 2.44 µM in assay [1]; 1.53 µM in assay [2]; 1.21 µM in [3]; 2.11 µM in [4]; 1.28 µM in assay [5]; 1.19 µM in assay [6]. Moreover, the GI50 in assay [7] was 0.691 µM; in [8], 3.51 µM; in assay [9], 2.29 µM; in assay [10], 12.7 µM. In addition, the TGI is over 100 µM in [1]; 8.94 µM in assay [2]; 13.8 µM in assay [3]; 24.9 µM in [4]; 19.9 µM in assay [5]; 20.5 µM in [6]. In addition, the TGI was over 100 µM in [7], over 100 µM in assay [8], 60.9 µM in assay [9] and over 100 µM in [10].
As to `CN1C(=O)c2ccccc2NC(=O)C12O[C@@H]2c1ccccc1` (some centres undefined), the TGI in assay [1], in assay [2], in assay [3], in assay [4], in assay [5] and in assay [6] was over 100 µM throughout. The TGI in assay [7], in assay [8], in [9] and in assay [10] was over 100 µM throughout.
On to `O=C(NC[C@H](O)CN1CCc2ccccc2C1)c1cc(NC2COC2)ncn1`, for which the GI50 in assay [1] is 26.4 µM; in assay [2] it was 19.1 µM; in [3], 16.2 µM; in [4], 23 µM; in assay [5] it was 3.98 µM; in [6] it was 10.8 µM. The GI50 in assay [7] was 20.8 µM; in [8], 5.92 µM; in assay [9], 14.9 µM; in [10], 14.7 µM. Besides, the TGI in assay [1] was over 100 µM; in assay [2], 81.4 µM; in assay [3] it was over 100 µM; in assay [4], over 100 µM; in [5] it was 21.1 µM; in assay [6], 49.1 µM. Also, the TGI in assay [7] was over 100 µM; in [8], 96.3 µM; in assay [9], 97.5 µM; in assay [10], over 100 µM.
Regarding `COC(=O)c1c2c(c(C)[n+]([O-])c1C)C(=O)C=C(NCc1ccc(F)cc1)C2=O`, the GI50 in assay [1] is 0.527 µM; in [2] it was 1.93 µM; in [3], 0.357 µM; in assay [4], 0.513 µM; in assay [5], 0.493 µM; in assay [6], 0.245 µM. Also, the GI50 was 0.37 µM in assay [7], 0.317 µM in assay [8], 1.38 µM in [9] and 0.592 µM in [10]. The TGI in [1] came out at 2.76 µM; in [2], 6.66 µM; in [3], 2.22 µM; in [4], 1.9 µM; in assay [5] it was 2 µM; in assay [6], 0.744 µM. The TGI in assay [7] came out at 1.93 µM; in assay [8], 3.68 µM; in [9], 4.66 µM; in assay [10], 1.94 µM.
With `COc1ccc(C(=O)Nc2ccc(O)c(=O)cc2)cc1`, the TGI in [1] was over 100 µM; in [2] it was over 100 µM; in assay [3], over 100 µM; in assay [4], over 100 µM; in assay [5], 28.7 µM; in assay [6] it was 90 µM. In addition, the TGI is 91.7 µM in assay [7], over 100 µM in [8], 63.4 µM in [9] and over 100 µM in assay [10].
On to `O=c1oc2ccc(-c3ccc(F)cc3F)cc2c(=O)n1-c1cccc(C(F)(F)F)c1`, for which the GI50 was 1.22 µM in assay [1]; 1.3 µM in assay [2]; 2.09 µM in [3]; 0.525 µM in [4]; 0.999 µM in assay [5]; 0.784 µM in assay [6]. In addition, the GI50 is 2.05 µM in assay [7], 2.04 µM in assay [8], 1.23 µM in assay [9] and 1.78 µM in assay [10]. The TGI in [1] was found to be 5.19 µM; in [2], 7.28 µM; in [3], 5.63 µM; in [4] it was 4.21 µM; in assay [5] it was 10.3 µM; in assay [6], 12.8 µM. Moreover, the TGI in assay [7] was over 100 µM; in assay [8], 12.4 µM; in assay [9] it was 8.21 µM; in assay [10], 4.14 µM.
In the case of `CCOc1ccc(/C=C2\N=C(c3ccc([N+](=O)[O-])cc3)OC2=O)cc1`, the TGI in [1], in assay [2], in [3], in [4], in assay [5] and in [6] was over 100 µM each time. The TGI in [7], in assay [8], in [9] and in [10] was over 100 µM each time.
On to `COc1cc(N(CCC#N)CCC#N)ccc1/C(N=Nc1ccc(Cl)cc1)=N/NC(=O)c1cc(Br)ccc1O`, for which the GI50 in assay [1] is 51.2 µg/mL; in assay [2] it was 125 µg/mL; in assay [3], 48 µg/mL; in [4] it was 58.5 µg/mL; in [5], 53.6 µg/mL; in [6], 50 µg/mL. Moreover, the GI50 in [7] is 39 µg/mL; in assay [8] it was 64.1 µg/mL; in assay [9], 35 µg/mL; in [10] it was 79.4 µg/mL. For the same molecule, the TGI is over 150 µg/mL in assay [1]; over 150 µg/mL in assay [2]; 129 µg/mL in [3]; over 150 µg/mL in assay [4]; over 150 µg/mL in assay [5]; over 150 µg/mL in assay [6]. The TGI was 108 µg/mL in assay [7], over 150 µg/mL in assay [8], over 150 µg/mL in [9] and over 150 µg/mL in assay [10].
As to `C[C@@H]1C[C@@H]([C@@H](CC2CC(=O)NC(=O)C2)OC(=O)CC(=O)c2ccccc2)C(=O)[C@@H](C)C1`, the GI50 was 0.252 µM in [1]; 0.604 µM in assay [2]; 0.888 µM in assay [3]; 0.588 µM in assay [4]; 0.461 µM in assay [5]; 1.74 µM in [6]. In addition, the GI50 in [7] was 0.405 µM; in assay [8], 0.444 µM; in [9], 0.908 µM; in assay [10] it was 0.224 µM. In addition, the TGI was 10.9 µM in assay [2]; 70.6 µM in assay [3]; over 49.1 µM in assay [4]; over 43.9 µM in assay [5]; over 32.7 µM in [6]; over 68.8 µM in assay [7]. Further, the TGI in assay [8] was over 100 µM; in [9], over 32 µM; in assay [10], 12.3 µM.
As to `S=c1[nH]c(=S)c2cc3ccccc3nc2[nH]1`, the GI50 in assay [1] is over 100 µM; in assay [2], 71.3 µM; in assay [3] it was 29.5 µM; in assay [4] it was over 100 µM; in assay [5] it was 73.2 µM; in assay [6] it was 12.9 µM. Also, the GI50 in assay [7] is over 100 µM; in [8], 4.74 µM; in [9] it was 39.4 µM; in [10] it was over 100 µM. The TGI in [1] was over 100 µM; in assay [2], over 100 µM; in assay [3], over 100 µM; in assay [4], over 100 µM; in assay [5] it was over 100 µM; in [6], 95.8 µM. In addition, the TGI in [7], in [8], in assay [9] and in assay [10] was over 100 µM throughout.
As to `N#C/C(=C\c1ccc2ccccc2c1)C(=O)c1ccccc1`, the TGI in [1] is over 100 µM; in assay [2] it was 77.6 µM; in [3], over 100 µM; in assay [4] it was over 88.4 µM; in assay [5], over 100 µM; in assay [6] it was over 94.4 µM. Besides, the TGI was over 46.4 µM in [7], over 100 µM in assay [8], over 100 µM in assay [9] and over 100 µM in assay [10].
Take `CCn1c(O)c(/C=N/NC(=O)C(C)c2ccc(CC(C)C)cc2)sc1=S` (centres undefined): the GI50 in assay [1] is 0.331 µM; in assay [2] it was 0.294 µM; in assay [3], 0.371 µM; in [4] it was 0.285 µM; in assay [5] it was 0.353 µM; in assay [6], 0.272 µM. Further, the GI50 in assay [7] was 0.493 µM; in [8] it was 0.415 µM; in assay [9] it was 1.63 µM; in [10] it was 0.337 µM. Besides, the TGI was over 33.7 µM in [1]; over 40.5 µM in [2]; over 32.8 µM in [3]; 14.5 µM in assay [4]; 10.9 µM in [5]; 3.97 µM in assay [6]. Further, the TGI was over 100 µM in [7], over 41.4 µM in assay [8], over 43.4 µM in [9] and over 34.7 µM in [10].
For the molecule `CC1CC2CCCC(O)=C2C(=O)O1` (centres undefined), the TGI in [1], in [2], in [3], in assay [4], in assay [5] and in assay [6] was over 100 µM each time. Moreover, the TGI in [7], in [8], in assay [9] and in [10] was over 100 µM in each case.
For `CN1CCN(c2ccc(Nc3cc(-c4cccc(-n5ccc6cc(C7CC7)cc(F)c6c5=O)c4CO)cn(C)c3=O)nc2)CC1`, the GI50 is 2.66 µM in [1]; 4.99 µM in assay [2]; 6.16 µM in assay [3]; 2.69 µM in [4]; 3.83 µM in assay [5]; 3.12 µM in assay [6]. Besides, the GI50 in assay [7] is 4.84 µM; in [8] it was 8.93 µM; in [9] it was 5.58 µM; in [10] it was 10.5 µM. Moreover, the TGI in assay [1] was 10.8 µM; in [2], 25.3 µM; in [3], 31.1 µM; in assay [4] it was 8.19 µM; in assay [5], 15.7 µM; in assay [6], 8.8 µM. Further, the TGI in [7] was found to be 29.7 µM; in assay [8], 25.2 µM; in [9], 20.9 µM; in assay [10], 24.2 µM.
For the molecule `CCC(C)(C)c1ccc(OCCCCNC(=O)c2ccc3ccccc3c2O)c(C(C)(C)CC)c1`, the TGI is over 100 µM in assay [1]; over 100 µM in assay [2]; over 100 µM in assay [3]; over 100 µM in assay [4]; over 100 µM in [5]; 73.2 µM in [6]. Moreover, the TGI in [7] is over 100 µM; in assay [8], 49.7 µM; in assay [9], over 100 µM; in assay [10] it was over 100 µM.
As for `CC(NCCC(c1ccccc1)c1ccccc1)c1ccccc1` (centres undefined), the GI50 in [1] was 2.73 µM; in [2], 4.04 µM; in assay [3], 2.06 µM; in assay [4] it was 1.73 µM; in assay [5] it was 1.71 µM; in assay [6], 3.21 µM. Further, the GI50 in assay [7] is 1.7 µM; in assay [8], 2.1 µM; in [9] it was 4.48 µM; in assay [10], 1.73 µM. The TGI in assay [1] worked out at 9.52 µM; in assay [2], 23.9 µM; in assay [3], 4.85 µM; in assay [4], 3.31 µM; in [5] it was 3.26 µM; in assay [6], 10.7 µM. Moreover, the TGI in [7] worked out at 3.37 µM; in [8], 6.96 µM; in assay [9], 17.5 µM; in [10], 3.86 µM.
As to `N=c1c2c(-c3ccccc3)c(-c3ccccc3)n(Cc3ccccc3)c2ncn1C1CCC(O)CC1` (centres undefined), the GI50 is 0.147 µM in assay [1]; 1.57 µM in assay [2]; 0.327 µM in assay [3]; 0.894 µM in [4]; 0.0542 µM in assay [5]; 0.488 µM in assay [6]. For the same molecule, the GI50 is 0.072 µM in assay [7], 0.466 µM in [8], 0.118 µM in [9] and 0.0836 µM in [10]. Further, the TGI in [1] came to 1.89 µM; in assay [2] it was 23.8 µM; in assay [3], 11.1 µM; in assay [4], 2.38 µM; in assay [5] it was 1.5 µM; in [6] it was 5.63 µM. Further, the TGI in assay [7] is 19 µM; in assay [8], 5.08 µM; in assay [9], 15 µM; in assay [10], 1.45 µM.
